Results: patent US6737383B1, “Herbicidal oxadiazolidines” (priority 1999, dated 2004)

Tests used:
corn = assay: Test B pre/postemergence corn; type: in vivo, Zea mays
Summary of the method: (§1)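 Test chemicals in a non-phytotoxic solvent mixture with surfactant were sprayed preemergence onto planted seeds and postemergence onto plants 2 to 18 cm tall (1- to 4-leaf stage). After twelve to sixteen days in a greenhouse, injury was visually rated against untreated controls from 0 (no effect) to 10 (complete control).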

cocklebur = assay: Test B pre/postemergence cocklebur; type: in vivo, Xanthium strumarium
Summary of the method: as §1

velvetleaf = assay: Test B pre/postemergence velvetleaf; type: in vivo, Abutilon theophrasti
Summary of the method: as §1

rice = assay: Test B flood test rice; type: in vivo, Oryza sativa
Summary of the method: (§2)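 Each value is a visual injury score relative to controls, with 10 meaning complete control and 0 no effect. Evaluation took place twelve to sixteen days after the 2-leaf-stage plants were treated and kept in the greenhouse.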

surinam grass = assay: Test B pre/postemergence surinam grass; type: in vivo, Brachiaria decumbens
Summary of the method: as §1

duck salad = assay: Test B flood test duck salad; type: in vivo, Heteranthera limosa
Summary of the method: as §2

pigweed = assay: Test B pre/postemergence pigweed; type: in vivo, Amaranthus retroflexus
Summary of the method: as §1

giant foxtail = assay: Test B pre/postemergence giant foxtail; type: in vivo, Setaria faberii
Summary of the method: as §1

soybean = assay: Test B pre/postemergence soybean; type: in vivo, Glycine max
Summary of the method: as §1

wild oat = assay: Test B pre/postemergence wild oat; type: in vivo, Avena fatua
Summary of the method: as §1

wheat = assay: Test B pre/postemergence wheat; type: in vivo, Triticum aestivum
Summary of the method: as §1

purple nutsedge = assay: Test B pre/postemergence purple nutsedge; type: in vivo, Cyperus rotundus
Summary of the method: as §1

sugar beet = assay: Test B pre/postemergence sugar beet; type: in vivo, Beta vulgaris
Summary of the method: as §1

bedstraw = assay: Test B pre/postemergence bedstraw; type: in vivo, Galium aparine
Summary of the method: as §1

blackgrass = assay: Test B pre/postemergence blackgrass; type: in vivo, Alopecurus myosuroides
Summary of the method: as §1

crabgrass = assay: Test B pre/postemergence crabgrass; type: in vivo, Digitaria sanguinalis
Summary of the method: as §1

[1] = Postemergence, Rate 125 g/ha, scale of 0 to 10 where 0 is no effect and 10 is complete control
[2] = Preemergence, Rate 62 g/ha, scale 0 to 10 (0 no effect, 10 complete control)
[3] = Preemergence, Rate 125 g/ha, 0 is no effect, 10 is complete control
[4] = Preemergence, Rate 250 g/ha, scale 0 to 10, 0 is no effect, 10 is complete control
[5] = Preemergence, Rate 500 g/ha, scale 0 to 10 (0 no effect, 10 complete control)
[6] = Rate 62 g/ha, Postemergence, scale of 0 to 10 where 0 is no effect and 10 is complete control
[7] = Rate 250 g/ha, Postemergence, scale 0 to 10, 0 is no effect, 10 is complete control
[8] = Rate 500 g/ha, Postemergence, scale 0 to 10
[9] = Postemergence (flood test species), Rate 125 g/ha, scale of 0 to 10 where 0 is no effect and 10 is complete control
[10] = Rate 62 g/ha, Postemergence section, flood test species, scale of 0 to 10 where 0 is no effect and 10 is complete control
[11] = Rate 250 g/ha, Postemergence (flood test), scale 0 to 10, 0 is no effect, 10 is complete control
[12] = Rate 500 g/ha, listed under Postemergence (flood test species), scale 0 to 10

CN(C(=O)n1oc(=O)n(Cc2ccccc2)c1=O)c1ccccc1 [Compound 153]
0: Corn plant response rating (corn; [1]) | Corn plant response rating (corn; [2]) | Corn plant response rating (0 to 10 scale) (corn; [3]) | Corn plant response rating (corn; [4]) | Corn plant response rating (corn; [5]) | Corn plant response rating (corn; [6]) | Plant response rating, Corn (corn; [7]) | Corn plant response rating (corn; [8]) | Cocklebur plant response rating (cocklebur; [1]) | Cocklebur plant response rating (cocklebur; [2]) | Cocklebur plant response rating (0 to 10 scale) (cocklebur; [3]) | Cocklebur plant response rating (cocklebur; [4]) | Cocklebur plant response rating (cocklebur; [5]) | Cocklebur plant response rating (cocklebur; [6]) | Plant response rating, Cocklebur (cocklebur; [7]) | Cocklebur plant response rating (cocklebur; [8]) | Velvetleaf plant response rating (velvetleaf; [2]) | Velvetleaf plant response rating (0 to 10 scale) (velvetleaf; [3]) | Velvetleaf plant response rating (velvetleaf; [4]) | Velvetleaf plant response rating (velvetleaf; [5]) | Velvetleaf plant response rating (velvetleaf; [6]) | Plant response rating, Velvetleaf (velvetleaf; [7]) | Velvetleaf plant response rating (velvetleaf; [8]) | Rice plant response rating (rice; [9]) | Rice plant response rating (rice; [10]) | Plant response rating, Rice (rice; [11]) | Rice plant response rating (rice; [12]) | B. signalgrass plant response rating (surinam grass; [1]) | B. signalgrass plant response rating (surinam grass; [2]) | B. signalgrass plant response rating (0 to 10 scale) (surinam grass; [3]) | B. signalgrass plant response rating (surinam grass; [4]) | B. signalgrass plant response rating (surinam grass; [5]) | B. signalgrass plant response rating (surinam grass; [6]) | Plant response rating, B. signalgrass (surinam grass; [7]) | B. signalgrass plant response rating (surinam grass; Rate 500 g/ha, Postemergence, scale of 0 to 10 where 0 is no effect and 10 is complete control) | Ducksalad plant response rating (duck salad; [9]) | Ducksalad plant response rating (duck salad; [10]) | Plant response rating, Ducksalad (duck salad; [11]) | Ducksalad plant response rating (duck salad; [12]) | Redroot pigweed plant response rating (pigweed; [1]) | Redroot pigweed plant response rating (pigweed; [2]) | Redroot pigweed plant response rating (0 to 10 scale) (pigweed; [3]) | Redroot pigweed plant response rating (pigweed; [4]) | Redroot pigweed plant response rating (pigweed; [5]) | Redroot pigweed plant response rating (pigweed; [6]) | Plant response rating, Redroot pigweed (pigweed; [7]) | Redroot pigweed plant response rating (pigweed; [8]) | Giant foxtail plant response rating (giant foxtail; [1]) | Giant foxtail plant response rating (giant foxtail; [2]) | Giant foxtail plant response rating (0 to 10 scale) (giant foxtail; [3]) | Giant foxtail plant response rating (giant foxtail; [4]) | Giant foxtail plant response rating (giant foxtail; [5]) | Giant foxtail plant response rating (giant foxtail; [6]) | Plant response rating, Giant foxtail (giant foxtail; [7]) | Giant foxtail plant response rating (giant foxtail; [8]) | Soybean plant response rating (soybean; [1]) | Soybean plant response rating (soybean; [2]) | Soybean plant response rating (0 to 10 scale) (soybean; [3]) | Soybean plant response rating (soybean; [4]) | Soybean plant response rating (soybean; [5]) | Soybean plant response rating (soybean; [6]) | Plant response rating, Soybean (soybean; [7]) | Soybean plant response rating (soybean; [8]) | Wild oats plant response rating (wild oat; [2]) | Wild oats plant response rating (0 to 10 scale) (wild oat; [3]) | Wild oats plant response rating (wild oat; [4]) | Wild oats plant response rating (wild oat; [5]) | Wild oats plant response rating (wild oat; [6]) | Plant response rating, Wild oats (wild oat; [7]) | Wild oats plant response rating (wild oat; [8]) | Wheat plant response rating (wheat; [2]) | Wheat plant response rating (0 to 10 scale) (wheat; [3]) | Wheat plant response rating (wheat; [4]) | Wheat plant response rating (wheat; [5]) | Wheat plant response rating (wheat; [6]) | Plant response rating, Wheat (wheat; [7]) | Wheat plant response rating (wheat; [8]) | Nutsedge plant response rating (purple nutsedge; [1]) | Nutsedge plant response rating (purple nutsedge; [2]) | Nutsedge plant response rating (0 to 10 scale) (purple nutsedge; [3]) | Nutsedge plant response rating (purple nutsedge; [4]) | Nutsedge plant response rating (purple nutsedge; [5]) | Nutsedge plant response rating (purple nutsedge; [6]) | Plant response rating, Nutsedge (purple nutsedge; [7]) | Nutsedge plant response rating (purple nutsedge; [8]) | Sugarbeets plant response rating (sugar beet; [1]) | Sugarbeets plant response rating (sugar beet; [2]) | Sugarbeets plant response rating (0 to 10 scale) (sugar beet; [3]) | Sugarbeets plant response rating (sugar beet; [4]) | Sugarbeets plant response rating (sugar beet; [5]) | Sugarbeets plant response rating (sugar beet; [6]) | Plant response rating, Sugarbeets (sugar beet; [7]) | Sugarbeets plant response rating (sugar beet; [8]) | Bedstraw plant response rating (bedstraw; [1]) | Bedstraw plant response rating (bedstraw; [2]) | Bedstraw plant response rating (0 to 10 scale) (bedstraw; [3]) | Bedstraw plant response rating (bedstraw; [4]) | Bedstraw plant response rating (bedstraw; [5]) | Bedstraw plant response rating (bedstraw; [6]) | Plant response rating, Bedstraw (bedstraw; [7]) | Bedstraw plant response rating (bedstraw; Rate 500 g/ha, Postemergence, scale 0 to 10, 0 no effect, 10 complete control) | Blackgrass plant response rating (blackgrass; [1]) | Blackgrass plant response rating (blackgrass; [2]) | Blackgrass plant response rating (0 to 10 scale) (blackgrass; [3]) | Blackgrass plant response rating (blackgrass; [4]) | Blackgrass plant response rating (blackgrass; [5]) | Blackgrass plant response rating (blackgrass; [6]) | Plant response rating, Blackgrass (blackgrass; [7]) | Blackgrass plant response rating (blackgrass; [8]) | Crabgrass plant response rating (crabgrass; [1]) | Crabgrass plant response rating (crabgrass; [2]) | Crabgrass plant response rating (0 to 10 scale) (crabgrass; [3]) | Crabgrass plant response rating (crabgrass; [4]) | Crabgrass plant response rating (crabgrass; [5]) | Crabgrass plant response rating (crabgrass; [6]) | Plant response rating, Crabgrass (crabgrass; [7]) | Crabgrass plant response rating (crabgrass; [8])
